Data on four compounds can be found in US8039506B2, “Bicyclic lactam factor VIIa inhibitors useful as anticoagulants” (Bristol-Myers Squibb Company, priority 2006, dated 2011).

Molecules are shown by their SMILES. pKi: −log10 of the molar value. Several values for one entry are separate records, joined by “and”; a condition that tells them apart may be missing. Equal values may be shown once.

This test addresses T1, human Factor VIIa (Homo sapiens, UniProt P08709).
T1 construct: with about 1% of the total amount in the proteolytically active form factor VIIa; purchased Haematologic Technologies (plasma-purified) or Novo Nordisk (recombinant)
The test can be described thus: Factor VIIa assay (hydrolysis of chromogenic substrate, Ki). The note with it: several values in one cell = repeat determinations. Type of test: biochemical.

T1 sequence (P08709 213-466 limits assumed): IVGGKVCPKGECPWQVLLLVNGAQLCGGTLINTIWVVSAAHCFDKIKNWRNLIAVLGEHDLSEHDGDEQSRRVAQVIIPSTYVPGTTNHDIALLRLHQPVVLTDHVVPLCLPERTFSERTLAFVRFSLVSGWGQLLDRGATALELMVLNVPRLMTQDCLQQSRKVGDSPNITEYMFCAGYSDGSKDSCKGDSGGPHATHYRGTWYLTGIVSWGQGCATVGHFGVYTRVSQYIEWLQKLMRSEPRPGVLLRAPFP
T1 sequence (P08709 61-212 limits assumed): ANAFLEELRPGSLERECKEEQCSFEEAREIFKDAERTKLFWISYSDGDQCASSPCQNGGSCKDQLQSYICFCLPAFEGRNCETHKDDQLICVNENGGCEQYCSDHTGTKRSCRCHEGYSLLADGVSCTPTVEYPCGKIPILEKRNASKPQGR
T1 sequence (P13726 33-251 partner limits assumed): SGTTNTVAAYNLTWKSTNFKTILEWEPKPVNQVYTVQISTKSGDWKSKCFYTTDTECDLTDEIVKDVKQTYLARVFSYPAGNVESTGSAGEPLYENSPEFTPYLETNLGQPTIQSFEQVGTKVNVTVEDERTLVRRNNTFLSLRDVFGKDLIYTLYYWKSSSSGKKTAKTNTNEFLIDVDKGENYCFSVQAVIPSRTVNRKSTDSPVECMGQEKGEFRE

Regarding `COC(=O)Nc1ccc(S(=O)(=O)C(C)C)c([C@H]2CCCN2C(=O)C(Nc2ccc(F)c3c2CNC3=O)c2ccc(OC)c(OC)c2)c1` (single isomer, unassigned) [Example 6], the pKi is below 4.89.
The same measure for `CC[C@H]1CNC(=O)c2cc(NC(C(=O)N3CCC[C@@H]3c3cc(NC(=O)OC)ccc3S(=O)(=O)C(C)C)c3ccc(OC)c(OC)c3)ccc21` (single isomer, unassigned) [Example 18]: 7.39 and 7.06.
Turning to `COC(=O)Nc1ccc(S(=O)(=O)C2CC2)c([C@H]2CCCN2C(=O)[C@H](Nc2ccc3nc[nH]c(=O)c3c2)c2ccc(F)c(OC)c2)c1` (single isomer, unassigned) [Example 22], the pKi is > 8.30 and 8.46.
In the case of `COc1cc([C@@H](Nc2ccc3c(c2)C(=O)NC3)C(=O)N2CC[C@H](C(=O)O)[C@@H]2c2ccccc2S(=O)(=O)C2CC2)ccc1F` [Example 28, (2R,3S)-2-(2-(cyclopropylsulfonyl)phenyl)-1-((R)-2-(4-fluoro-3-methoxyphenyl)-2-(3-oxoisoindolin-5-ylamino)acetyl)pyrrolidine-3-carboxylic acid] it was 7.22.

Usually pKi stands for −log10 of the Ki, conventionally taken in molar units.
